Laboratory results published in ChEMBL document CHEMBL1155158, “Early bactericidal activity of high-dose rifampin in patients with pulmonary tuberculosis evidenced by positive sputum smears” (Antimicrob Agents Chemother, 2007).

Key:
Homo sapiens [1] = assay: AUC (0 to infinity) in Mycobacterium tuberculosis infected patient at 6 mg/kg; format: ADME, organism-based, Plasma; design: time infinity, dose 6 mg/kg; details: in vivo
[2] = test system: Mycobacterium tuberculosis; assay: Antimycobacterial activity against Mycobacterium tuberculosis infected patient assessed as sputum bacterial count at 600 mg, po after 2 days; format: functional
[3] = Tmax in Mycobacterium tuberculosis infected patient at 3 mg/kg; format: ADME, organism-based; design: dose 3 mg/kg; details: human, in vivo
[4] = test system: Mycobacterium tuberculosis; assay: Antimycobacterial activity against Mycobacterium tuberculosis infected patient assessed as sputum bacterial count at 20 mg/kg, po administered daily for 5 days; format: functional
[5] = test system: Mycobacterium tuberculosis; assay: Antimycobacterial activity against Mycobacterium tuberculosis infected patient assessed as sputum bacterial count at 20 mg/kg, po administered daily for 2 days; format: functional
[6] = Tmax in Mycobacterium tuberculosis infected patient at 6 mg/kg; format: ADME, organism-based; design: dose 6 mg/kg; details: human, in vivo
Homo sapiens [7] = assay: AUC (0 to infinity) in Mycobacterium tuberculosis infected patient at 3 mg/kg; format: ADME, organism-based, Plasma; design: time infinity, dose 3 mg/kg; details: in vivo
clinical [8] = details: human, in vivo, 6 mg/kg
Description: Cmax in Mycobacterium tuberculosis infected patient at 6 mg/kg

clinical [9] = details: human, in vivo, 3 mg/kg
Description: Cmax in Mycobacterium tuberculosis infected patient at 3 mg/kg

clinical [10] = details: human, in vivo, 12 mg/kg
Description: Cmax in Mycobacterium tuberculosis infected patient at 12 mg/kg

[11] = Tmax in Mycobacterium tuberculosis infected patient at 12 mg/kg; format: ADME, organism-based; design: dose 12 mg/kg; details: human, in vivo
clinical [12] = details: human, in vivo, po, 20 mg/kg
Description: Cmax in Mycobacterium tuberculosis infected patient at 20 mg/kg, po administered daily for 5 days

[13] = Tmax in Mycobacterium tuberculosis infected patient at 20 mg/kg, po administered daily for 5 days; format: ADME, organism-based; design: dose 20 mg/kg, route oral; details: human, in vivo

Compound: CO[C@H]1/C=C/O[C@@]2(C)Oc3c(C)c(O)c4c(O)c(c(/C=N/N5CCN(C)CC5)c(O)c4c3C2=O)NC(=O)/C(C)=C\C=C\[C@H](C)[C@H](O)[C@@H](C)[C@@H](O)[C@@H](C)[C@H](OC(C)=O)[C@@H]1C [RIFAMPIN]
- AUC (Homo sapiens [1]): 24.5 µg/mL
- log10CFU/ml [2]: 0.221
- Tmax [3]: 3.12 h
- log10CFU/ml [4]: 0.3
- log10CFU/ml [5]: 0.44
- Tmax [6]: 3.67 h
- AUC (Homo sapiens [7]): 13.1 µg/mL
- Cmax (clinical [8]): 3.19 µg/mL
- Cmax (clinical [9]): 2.53 µg/mL
- Cmax (clinical [10]): 13 µg/mL
- Tmax [11]: 2.5 h
- Cmax at 120 h (clinical [12]): 14 µg/mL
- Tmax [13]: 3.27 h
